Source: the NIST ThermoML archive (doi:10.1016/j.fluid.2011.01.001)

How the values were obtained:
[1] = refractive index (Na D-line) (dimensionless); conditions: 101.33 kPa, Liquid, Standard Abbe refractometry
[2] = 101.33 kPa, Liquid, Vibrating tube method
[3] = mn = molality of the nth substance listed, in mol/kg; conditions: 101 kPa, Liquid, Vibrating tube method

CCn1cc[n+](C)c1.COS(=O)(=O)[O-] [1-ethyl-3-methylimidazolium methylsulfate]
Conditions | mass density, 298.15 K [kg/m3] | mass density, 308.15 K [kg/m3] | mass density, 318.15 K [kg/m3] | mass density, 328.15 K [kg/m3] | refractive index, 298.15 K | refractive index, 308.15 K | refractive index, 318.15 K | refractive index, 328.15 K
[1] | – | – | – | – | 1.4822 | 1.4782 | 1.4759 | 1.4704
[2] | 1361.2 | 1333.2 | 1319.2 | 1300.3 | – | – | – | –

CCn1cc[n+](C)c1.COS(=O)(=O)[O-] [1-ethyl-3-methylimidazolium methylsulfate] + O
mass density [kg/m3], [3]
Conditions | 298.15 K | 308.15 K | 318.15 K | 328.15 K
m1 = 0.0166 | 998.28 | 995.1 | 991.05 | 985.78
m1 = 0.0244 | 998.78 | 995.59 | 991.42 | 986.12
m1 = 0.0302 | 999.18 | 995.94 | 991.68 | 986.36
m1 = 0.0372 | 999.58 | 996.31 | 992 | 986.62
m1 = 0.0702 | 1001.29 | 997.81 | 993.46 | 987.97
m1 = 0.077 | 1001.59 | 998.05 | 993.68 | 988.23
m1 = 0.0961 | 1002.25 | 998.74 | 994.43 | 988.9
m1 = 0.1191 | 1003.09 | 999.51 | 995.31 | 989.75
m1 = 0.1346 | 1003.69 | 999.99 | 995.93 | 990.36
m1 = 0.1823 | 1005.3 | 1002.08 | 997.93 | 992.14
m1 = 0.3343 | 1011.4 | 1008.04 | 1003.88 | 997.71
m1 = 0.4226 | 1014.99 | 1011.67 | 1007.18 | 1000.86
m1 = 0.5486 | 1020.29 | 1017.02 | 1011.85 | 1005.32
m1 = 0.573 | 998.28 | 1018.1 | 1012.71 | 1006.1

CCCCCCn1cc[n+](C)c1.CCOS(=O)(=O)[O-] [1-hexyl-3-methylimidazolium ethyl sulfate]
Conditions | mass density, 298.15 K [kg/m3] | mass density, 308.15 K [kg/m3] | mass density, 318.15 K [kg/m3] | mass density, 328.15 K [kg/m3] | refractive index, 298.15 K | refractive index, 308.15 K | refractive index, 318.15 K | refractive index, 328.15 K
[1] | – | – | – | – | 1.4677 | 1.4636 | 1.4596 | 1.4566
[2] | 1137.54 | 1130.74 | 1124.29 | 1117.81 | – | – | – | –
